Results filed as inconclusive are left out. Calls of active or inactive are those of the source.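 The calls were made as follows: active = fitted curve rises past 40% HDL binding increase at a concentration no higher than twice the top valid tested dose; inconclusive = no clear call, values can overlap the other calls; inactive = effects opposite to the expected rise, plus the rest.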
Molecular target: Scavenger receptor class B member 1 (Mus musculus) (UniProt Q61009)
Experiment: modulators of Alexa488-HDL binding to SR-BI, dose response, orthogonal assay for SR-BI HDL uptake inhibitor project, cell-based, ldlA[mSR-BI] CHO, Alexa 488-HDL, powder samples, set 3 (AID 624024)
Conditions: ldlA[mSR-BI] CHO cells, Alexa488-HDL binding fluorescence, 3 h

Scavenger receptor class B member 1 (Mus musculus), sequence (Q61009 whole entry, looked up): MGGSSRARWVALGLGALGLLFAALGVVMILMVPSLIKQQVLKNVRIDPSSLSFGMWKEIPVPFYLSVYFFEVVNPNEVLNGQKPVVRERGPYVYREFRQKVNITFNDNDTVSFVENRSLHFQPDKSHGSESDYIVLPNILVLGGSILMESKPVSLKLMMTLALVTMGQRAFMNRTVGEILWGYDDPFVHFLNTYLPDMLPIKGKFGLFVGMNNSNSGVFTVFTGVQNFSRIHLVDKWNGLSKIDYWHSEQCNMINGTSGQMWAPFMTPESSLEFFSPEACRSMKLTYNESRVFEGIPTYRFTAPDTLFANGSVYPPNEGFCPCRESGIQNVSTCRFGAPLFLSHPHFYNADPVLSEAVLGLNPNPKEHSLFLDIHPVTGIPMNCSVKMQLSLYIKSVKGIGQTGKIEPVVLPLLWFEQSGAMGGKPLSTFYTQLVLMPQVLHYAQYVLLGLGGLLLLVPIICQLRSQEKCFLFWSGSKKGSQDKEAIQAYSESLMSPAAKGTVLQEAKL

Which AC40 does the source give for `COc1c(NC(=O)C(=O)c2ccc(OCCN3CCOCC3)c3ccccc23)cc(C(C)(C)C)cc1NS(C)(=O)=O` here?
The AC40 was 218 nM.

Which AC40 does the source give for `CC(C)(C)OC(=O)N1CCN(c2ccc(NC(=O)c3cc([N+](=O)[O-])ccc3Cl)cc2)CC1` here?
Its AC40 is 155 nM.

How did the AC40 turn out when `COCC(=O)N1CCc2cc(-c3csc(NC(=O)c4cc(OC)cc(OC)c4)n3)ccc21` was run?
The AC40 was 19.9 nM.

Which AC40 does the source give for `CC(C)NC(=O)Nc1ccc2c(c1)C(=O)N([C@@H](C)CO)C[C@@H](C)[C@H](CN(C)S(=O)(=O)c1ccc(Cl)cc1)O2` here?
The AC40 was 20.3 nM.

With `CC(C)CN(C(=O)COC(=O)C12CC3CC(CC(O)(C3)C1)C2)C1CCS(=O)(=O)C1` (configuration not stated) as the compound, how does the AC40 read?
Its AC40 is 772 nM.

With `C[C@@H]1CN([C@H](C)CO)C(=O)c2cc(NC(=O)C3CCCCC3)ccc2O[C@H]1CN(C)S(=O)(=O)c1ccccc1Cl` as the compound, how does the AC40 read?
Its AC40 is 222 nM.

For `C[C@@H]1CN([C@H](C)CO)C(=O)c2cc(NC(=O)Cc3cn(C)c4ccccc34)ccc2O[C@H]1CN(C)S(=O)(=O)c1ccc(Cl)cc1`, which AC40 is on record?
Its AC40 is 4.61 nM.

For `C[C@H](C(=O)NC1CCCC1)N(C(=O)Cn1nnc(-c2ccc3c(c2)OCO3)n1)C1CCCCC1`, which AC40 is on record?
The AC40 was 16.7 nM.

How did the AC40 turn out when `CC(C)NC(=O)Nc1ccc2c(c1)C(=O)N([C@@H](C)CO)C[C@H](C)[C@@H](CN(C)S(=O)(=O)c1ccc(Cl)cc1)O2` was run?
The AC40 was 671 nM.

Which AC40 does the source give for `C[C@@H]1CN([C@H](C)CO)C(=O)c2cc(NC(=O)C3CCOCC3)ccc2O[C@H]1CN(C)S(=O)(=O)c1ccc(Cl)cc1` here?
Its AC40 is 1970 nM.

Which AC40 does the source give for `C[C@@H]1CN([C@H](C)CO)C(=O)c2cc(NC(=O)Nc3ccc(F)cc3)ccc2O[C@H]1CN(C)S(=O)(=O)c1ccc(Cl)cc1` here?
The AC40 was 33.2 nM.

How did the AC40 turn out when `CC(C)NC(=O)Nc1ccc2c(c1)C(=O)N([C@@H](C)CO)C[C@@H](C)[C@@H](CN(C)S(=O)(=O)c1ccc(Cl)cc1)O2` was run?
The AC40 was 57.6 nM.

How did the AC40 turn out when `C[C@@H]1CN([C@H](C)CO)C(=O)c2cc(NC(=O)Cc3cn(C)c4ccccc34)ccc2O[C@H]1CN(C)S(=O)(=O)c1ccc(F)cc1` was run?
The AC40 was 1.76 nM.

How did the AC40 turn out when `CC(C)NC(=O)Nc1cccc2c1O[C@@H](CN(C)S(=O)(=O)c1ccc(Cl)cc1)[C@H](C)CN([C@H](C)CO)C2=O` was run?
The AC40 was 544 nM.

With `Cc1noc(C)c1S(=O)(=O)Nc1ccc2c(c1)C(=O)N([C@H](C)CO)C[C@@H](C)[C@H](CN(C)S(=O)(=O)c1ccc(Cl)cc1)O2` as the compound, how does the AC40 read?
The AC40 was 138 nM.

With `CNC[C@@H]1Oc2ccc(NC(=O)NC(C)C)cc2C(=O)N([C@H](C)CO[Si](C)(C)C(C)(C)C)C[C@H]1C` as the compound, how does the AC40 read?
The AC40 was 3380 nM.

How did the AC40 turn out when `C[C@@H]1CN([C@H](C)CO)C(=O)c2cc(NC(=O)C3CCCCC3)ccc2O[C@H]1CN(C)S(=O)(=O)c1ccc(Cl)cc1` was run?
The AC40 was 33.2 nM.

How did the AC40 turn out when `CCOc1cc2c3c(c1)C1(C(=O)N3C(C)(C)CC2C)C(C#N)=C(N)N2C(=C1C#N)Nc1ccccc12` (configuration not stated) was run?
Its AC40 is 3670 nM.

With `C[C@@H]1CN([C@H](C)CO)C(=O)c2cc(NC(=O)C3CCCCC3)ccc2O[C@H]1CN(C)C(=O)c1ccc(Cl)cc1` as the compound, how does the AC40 read?
The AC40 was 17500 nM.

With `C=CCOC(=O)N(C)C[C@@H]1Oc2ccc(N)cc2C(=O)N([C@H](C)CO[Si](C)(C)C(C)(C)C)C[C@H]1C` as the compound, how does the AC40 read?
The AC40 was 3760 nM.

With `CCCCCCC1CCC/C1=N\NC(N)=S` (configuration not stated) as the compound, how does the AC40 read?
Its AC40 is 2.72 nM.

With `C=CCOC(=O)N(C)C[C@@H]1Oc2ccc(NC(=O)OCC3c4ccccc4-c4ccccc43)cc2C(=O)N([C@H](C)CO)C[C@H]1C` as the compound, how does the AC40 read?
The AC40 was 1870 nM.

Which AC40 does the source give for `CC(C)NC(=O)Nc1ccc2c(c1)C(=O)N([C@H](C)CO)C[C@@H](C)[C@@H](CN(C)S(=O)(=O)c1ccc(Cl)cc1)O2` here?
The AC40 was 3690 nM.

With `C[C@@H]1CN([C@H](C)CO)C(=O)c2cc(NC(=O)C3CCCCC3)ccc2O[C@H]1CN(C)S(=O)(=O)c1cccc(Cl)c1` as the compound, how does the AC40 read?
The AC40 was 3040 nM.

For `CC(=O)Nc1ccc(Cl)c(C(=O)Nc2ccc(N3CCN(C(=O)OC(C)(C)C)CC3)cc2)c1`, which AC40 is on record?
Its AC40 is 16.6 nM.

For `C[C@@H]1CN([C@H](C)CO[Si](C)(C)C(C)(C)C)C(=O)c2cc(NC(=O)C3CCCCC3)ccc2O[C@H]1CN(C)C(=O)c1ccc(Cl)cc1`, which AC40 is on record?
Its AC40 is 6330 nM.

How did the AC40 turn out when `CC(C)NC(=O)Nc1ccc2c(c1)C(=O)N([C@@H](C)CO)C[C@H](C)[C@H](CN(C)S(=O)(=O)c1ccc(Cl)cc1)O2` was run?
Its AC40 is 12.1 nM.

Same assay, conditions: ldlA[mSR-BI] CHO cells, Alexa488-HDL binding fluorescence, 3 h; at 35 µM (top of the series)

`C=CCOC(=O)N(C)C[C@@H]1Oc2ccc(NC(=O)NC(C)C)cc2C(=O)N([C@H](C)CO[Si](C)(C)C(C)(C)C)C[C@H]1C` was tested. Which HDL binding change, positive = increase did it give?
The HDL binding change, positive = increase was 90.1% (inactive).

For `Cc1ccc(OCc2cc(C(=O)N3CCCC(O)C3)no2)cn1` (configuration not stated), which HDL binding change, positive = increase is on record?
Its HDL binding change, positive = increase is 36% (inactive).

Which HDL binding change, positive = increase does the source give for `COc1ccc2c(c1)CC(C1(O)C(=O)N(C)c3ccccc31)C2=O` (configuration not stated) here?
Its HDL binding change, positive = increase is 37.2% (inactive).

How did the HDL binding change, positive = increase turn out when `O=C(O)CC(C(=O)Nc1cccc(C(F)(F)F)c1)C1CCCO1` (configuration not stated) was run?
Its HDL binding change, positive = increase is 64.3% (inactive).

Which HDL binding change, positive = increase does the source give for `O=C1C2C3C=CC(C3)C2C(=O)N1c1cccc(N2C(=O)C3C4C=CC(C4)C3C2=O)n1` (configuration not stated) here?
The HDL binding change, positive = increase was 4.51% (inactive).
